Experimental findings from patent US20260207621A1 (Vividion Therapeutics, Inc., priority 2022, published 2026) are described below.

pIC50: −log10 of the molar value.

One assay has as its system Nrf2. Description: Nrf2 antagonism assay: ARE luciferase reporter in KYSE-70 cells. It is filed as cell-based. Conditions: positive Imax corresponds to Nrf2 antagonism; for Emax: Homo sapiens, KYSE-70, KYSE-70 cells, read-out: KYSE70 Cellular ARE Luciferase Imax (%); for KYSE70 Cellular ARE Luciferase Imax (%): KYSE-70 cells. Summed up:
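KYSE-70 esophageal squamous carcinoma cells carrying Nrf2 W24C (constitutively Nrf2-high) with an ARE-driven luciferase reporter. Loss of luciferase signal reflects Nrf2 antagonism via KEAP1 C151 engagement. IC50 and Imax come from dose-response curves; positive Imax means antagonism.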

The target in another assay is T1, KEAP1 C151 (Homo sapiens, UniProt Q14145).
T1 construct: treating 500 μg of cell lysate generated from MDA-MB-468 breast cancer cells with DMSO or compound; endogenous in cells; host or cells: MDA-MB-468 breast cancer cell lysate
T1 sequence (Q14145 whole entry): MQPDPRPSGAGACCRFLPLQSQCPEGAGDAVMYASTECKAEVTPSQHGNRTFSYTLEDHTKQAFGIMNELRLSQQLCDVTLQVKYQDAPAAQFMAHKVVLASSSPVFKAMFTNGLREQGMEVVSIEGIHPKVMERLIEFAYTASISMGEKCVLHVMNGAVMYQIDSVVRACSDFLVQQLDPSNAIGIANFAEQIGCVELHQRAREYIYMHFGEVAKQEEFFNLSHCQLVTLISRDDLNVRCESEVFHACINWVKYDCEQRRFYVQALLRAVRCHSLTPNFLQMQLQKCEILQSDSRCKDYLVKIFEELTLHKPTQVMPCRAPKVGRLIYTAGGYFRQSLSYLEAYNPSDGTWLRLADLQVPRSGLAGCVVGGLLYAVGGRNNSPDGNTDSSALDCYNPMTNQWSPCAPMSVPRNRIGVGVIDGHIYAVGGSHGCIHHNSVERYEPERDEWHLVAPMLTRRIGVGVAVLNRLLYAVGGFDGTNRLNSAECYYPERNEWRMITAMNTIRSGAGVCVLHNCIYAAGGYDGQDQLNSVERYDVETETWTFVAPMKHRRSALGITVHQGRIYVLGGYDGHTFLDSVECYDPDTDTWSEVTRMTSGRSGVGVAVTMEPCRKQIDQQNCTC
Description: Nrf2 TMT measurement: in vitro TE50 for KEAP1 C151 (IA-DTB competition, targeted TMT mass spectrometry) in MDA-MB-468 cell lysate. It is filed as binding. Conditions: in vitro target engagement of KEAP1 C151, targeted TMT, read-out: KEAP1_C151 TE50. Summed up: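 MDA-MB-468 lysate (500 μg) treated with compound for 1 h at room temperature, then 200 μM IA-DTB for 1 h. Labeled peptides streptavidin-enriched after trypsin digest, TMT-labeled and quantified by targeted MS3 on the KEAP1 C151 peptide. IC50 from dose-response curve fitting.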

In the case of `C=CC(=O)N1CCN(C(C)=O)C[C@H]1c1cc(Cl)cc(-c2cc(N)ncn2)c1` (single isomer, unassigned) [Compound 187], the Emax in the assay on Nrf2 was found to be 71%. Moreover, at KEAP1 C151, the pIC50 was 6.92.

With `C=CC(=O)N1CCN(C(C)=O)C[C@H]1c1cc(Cl)cc(-c2ncc(N)cn2)c1` (single isomer, unassigned) [Compound 188], the Emax with Nrf2 was found to be 86%. Moreover, the pIC50 at KEAP1 C151 was 7.74.

`C=CC(=O)N1CC2(CC2)OCC1c1cc(Cl)nc(-c2ccn3ccnc3c2)c1` (single isomer, unassigned) [Compound 190, 1-(6-(2-chloro-6-(imidazo[1,2-a]pyridin-7-yl)pyridin-4-yl)-4-oxa-7-azaspiro[2,5]octan-7-yl)prop-2-en-1-one]: in the assay with Nrf2, the Emax worked out at 75%. Also, the pIC50 on KEAP1 C151 was 8.18.

As for `C=CC(=O)N1CCOC[C@H]1c1cc(Cl)cc(-c2nc(N)nc(N)n2)c1` (single isomer, unassigned) [Compound 191], the Emax in the assay on Nrf2 stood at 93%. Also, the pIC50 at KEAP1 C151 is 7.92.

As to `C=CC(=O)N1CC2(CC2)OCC12COc1c(-c3ccnc(N)n3)cc(Cl)cc12` (single isomer, unassigned) [Compound 192], in the assay on Nrf2, the Emax was 64%. Further, at KEAP1 C151, the pIC50 was 5.17.

Turning to `C=CC(=O)N1[C@H](c2cc(Cl)nc(-c3ccnc(N)n3)c2)COC[C@H]1C(F)F` (single isomer, unassigned) [Compound 203], in the assay with Nrf2, the Emax is 87%. Further, the pIC50 at KEAP1 C151 was 7.96.

Regarding `C=CC(=O)N1[C@H](CC#N)COC[C@H]1c1cc(Cl)cc(-c2cc(N)ncn2)c1` (single isomer, unassigned) [Compound 204], the Emax with Nrf2 amounted to 86%. Besides, the pIC50 at KEAP1 C151 is 7.96.

As for `C=CC(=O)N1CCS(=O)(=O)CC1c1cc(Cl)cc(-c2ncnc(N)n2)c1` (single isomer, unassigned) [Compound 205, 1-(3-(3-(4-amino-1,3,5-triazin-2-yl)-5-chlorophenyl)-1,1-dioxidothiomorpholino)prop-2-en-1-one], the “KYSE70 Cellular ARE Luciferase Imax (%)” value in the assay on Nrf2 is reported as 92%. Also, at KEAP1 C151, the pIC50 was 7.47.

For the compound `C=CC(=O)N1CCS(=O)(=O)CC1c1cc(Cl)cc(-c2ncnc(N)n2)c1` (single isomer, unassigned) [Compound 206, 1-(3-(3-(4-amino-1,3,5-triazin-2-yl)-5-chlorophenyl)-1,1-dioxidothiomorpholino)prop-2-en-1-one], the “KYSE70 Cellular ARE Luciferase Imax (%)” value in the assay on Nrf2 was 55%. The pIC50 on KEAP1 C151 was 6.28.

Regarding `C=CC(=O)N1CCS(=O)(=O)CC1c1cc(Cl)cc(-c2ncc(N)cn2)c1` (single isomer, unassigned) [Compound 207, 1-(3-(3-(5-aminopyrimidin-2-yl)-5-chlorophenyl)-1,1-dioxidothiomorpholino)prop-2-en-1-one], the Emax in the assay on Nrf2 stood at 90%. Besides, the pIC50 on KEAP1 C151 was 7.35.

With `C=CC(=O)N1CCS(=O)(=O)CC1c1cc(Cl)cc(-c2nccc(N)n2)c1` (single isomer, unassigned) [Compound 209, 1-(3-(3-(4-aminopyrimidin-2-yl)-5-chlorophenyl)-1,1-dioxidothiomorpholino)prop-2-en-1-one], the Emax in the assay with Nrf2 worked out at 93%. At KEAP1 C151, the pIC50 was 7.09.

For the compound `C=CC(=O)N1CCOC[C@H]1c1cc(Cl)cc(-c2nc(O)n[nH]2)c1` (single isomer, unassigned) [Compound 210], the Emax in the assay with Nrf2 is 55%. Besides, on KEAP1 C151, the pIC50 is 6.42.

Regarding `C=CC(=O)N1CCOC[C@H]1c1cc(Cl)cc(-n2cc(N)cn2)c1` (single isomer, unassigned) [Compound 211], in the assay on Nrf2, the Emax worked out at 57%. On KEAP1 C151, the pIC50 was 7.07.

As for `C=CC(=O)N1CCOC[C@H]1c1cc(Cl)cc(-c2cc(N)on2)c1` (single isomer, unassigned) [Compound 212], the Emax in the assay on Nrf2 is 90%. Also, the pIC50 at KEAP1 C151 is 7.16.

As for `C=CC(=O)N1CCOC[C@H]1c1cc(Cl)cc(-c2cnc(=O)n(C)c2)c1` (single isomer, unassigned) [Compound 213], the Emax in the assay with Nrf2 was determined as 75%. Moreover, on KEAP1 C151, the pIC50 was 6.33.

As to `C=CC(=O)N1CCOC[C@H]1c1cc(Cl)cc(-c2ncnc(NC)n2)c1` (single isomer, unassigned) [Compound 214], in the assay with Nrf2, the Emax amounted to 93%. At KEAP1 C151, the pIC50 is 7.00.

For the compound `C=CC(=O)N1CCOC[C@H]1c1cc(Cl)cc(C2CNC(=O)N(C)C2)c1` (single isomer, unassigned) [Compound 216], the Emax in the assay on Nrf2 turned out to be 86%. For the same compound, the pIC50 at KEAP1 C151 was 6.85.

As to `C=CC(=O)N1CCOC[C@H]1c1cc(Cl)cc(C2CNC(=O)N(C)C2)c1` (single isomer, unassigned) [Compound 217], the “KYSE70 Cellular ARE Luciferase Imax (%)” value in the assay on Nrf2 is listed as 78%. For the same compound, the pIC50 on KEAP1 C151 was 7.52.

For `C=CC(=O)N1CCOC[C@H]1c1cc(Cl)cc(-c2nc(N)nc(NC)n2)c1` (single isomer, unassigned) [Compound 218], in the assay with Nrf2, the Emax was 92%. At KEAP1 C151, the pIC50 was 7.80.

Consider `C=CC(=O)N1CCOC[C@H]1c1cc(Cl)cc(-c2ncc(C(N)=O)o2)c1` (single isomer, unassigned) [Compound 220], for which the Emax in the assay on Nrf2 is 73%. For the same compound, at KEAP1 C151, the pIC50 is 7.31.

Consider `C=CC(=O)N1CCOC[C@H]1c1cc(Cl)cc(-c2ncnc(NCCCN(C)C)n2)c1` (single isomer, unassigned) [Compound 221], for which, in the assay on Nrf2, the Emax was 78%. The pIC50 on KEAP1 C151 was 6.55.

Regarding `C=CC(=O)N1CCOC[C@H]1c1cc(Cl)cc(C2CNC(=O)NC2)c1` (single isomer, unassigned) [Compound 222], the Emax in the assay with Nrf2 is 85%. The pIC50 at KEAP1 C151 is 6.48.

For the compound `C=CC(=O)N1[C@H](c2cc(Cl)nc(-c3cc(C(N)=O)ncn3)c2)COC[C@H]1C(F)F` (single isomer, unassigned) [Compound 223], the Emax in the assay on Nrf2 turned out to be 94%. For the same compound, the pIC50 at KEAP1 C151 is 8.46.

`C=CC(=O)N1CCOC[C@H]1c1cc(Cl)cc(-c2nc(C(N)=O)co2)c1` (single isomer, unassigned) [Compound 224]: the Emax in the assay on Nrf2 turned out to be 90%. In addition, the pIC50 on KEAP1 C151 is 6.77.

As to `C=CC(=O)N1CCOC[C@H]1c1cc(Cl)cc(C2CNC(=S)N(C)C2)c1` (single isomer, unassigned) [Compound 226], the Emax in the assay with Nrf2 worked out at 85%. For the same compound, the pIC50 on KEAP1 C151 is 6.70.

As for `C=CC(=O)N1CCOC[C@H]1c1cc(Cl)cc(C2CNC(=S)N(C)C2)c1` (single isomer, unassigned) [Compound 227], in the assay with Nrf2, the “KYSE70 Cellular ARE Luciferase Imax (%)” value came out at 90%. At KEAP1 C151, the pIC50 is 7.02.

Take `C=CC(=O)N1CCOC[C@H]1c1cc(Cl)cc(N2CCNC(=O)C2)c1` (single isomer, unassigned) [Compound 228]: in the assay with Nrf2, the Emax is 79%. For the same compound, the pIC50 at KEAP1 C151 was 6.89.

On to `C=CC(=O)N1CCOC[C@H]1c1cc(Cl)cc(-c2nc(N)nc(NCCCN(C)C)n2)c1` (single isomer, unassigned) [Compound 229], for which, in the assay with Nrf2, the Emax was 92%. Besides, the pIC50 at KEAP1 C151 was 6.25.

Take `C=CC(=O)N1CCOC[C@H]1c1cc(Cl)cc(N2CCC(N)C2=O)c1` (single isomer, unassigned) [Compound 230]: the Emax in the assay with Nrf2 came out at 51%. In addition, the pIC50 at KEAP1 C151 was 6.09.

Regarding `C=CC(=O)N1CCOC[C@H]1c1cc(Cl)cc(C2CNC(=O)CO2)c1` (single isomer, unassigned) [Compound 231], the “KYSE70 Cellular ARE Luciferase Imax (%)” value in the assay with Nrf2 is 55%. The pIC50 at KEAP1 C151 was 6.49.

Turning to `C=CC(=O)N1CCOC[C@H]1c1cc(Cl)cc(C2CNC(=O)CO2)c1` (single isomer, unassigned) [Compound 232], the “KYSE70 Cellular ARE Luciferase Imax (%)” value with Nrf2 turned out to be 84%. In addition, at KEAP1 C151, the pIC50 is 6.85.

In the case of `C=CC(=O)N1CCOC[C@H]1c1cc(Cl)cc(C2CNC(=S)NC2)c1` (single isomer, unassigned) [Compound 233], in the assay on Nrf2, the Emax was 83%. The pIC50 on KEAP1 C151 was 6.18.

Take `C=CC(=O)N1CCOC[C@H]1c1cc(Cl)cc(-c2cnc(N)o2)c1` (single isomer, unassigned) [Compound 234]: the Emax in the assay with Nrf2 came out at 89%. Further, the pIC50 on KEAP1 C151 is 6.66.

With `C=CC(=O)N1CCOC[C@H]1c1cc(Cl)cc(-c2cc(N)[nH]n2)c1` (single isomer, unassigned) [Compound 235], the Emax in the assay with Nrf2 came out at 86%. The pIC50 at KEAP1 C151 is 6.96.

With `C=CC(=O)N1C[C@@H](C)N(C(C)=O)C[C@@H]1c1cc(Cl)cc(-c2ncc(N)cn2)c1` (single isomer, unassigned) [Compound 236], in the assay on Nrf2, the “KYSE70 Cellular ARE Luciferase Imax (%)” value is listed as 87%. In addition, the pIC50 at KEAP1 C151 was 7.60.

Take `C=CC(=O)N1C[C@@H](C)N(C(C)=O)C[C@@H]1c1cc(Cl)cc(-c2ncc(N)cn2)c1` (single isomer, unassigned) [Compound 237]: the “KYSE70 Cellular ARE Luciferase Imax (%)” value with Nrf2 is 50%. Besides, the pIC50 on KEAP1 C151 is 6.85.

In the case of `C=CC(=O)N1CC(F)(F)CCC1c1cc(Cl)cc(-c2ncc(N)cn2)c1` (single isomer, unassigned) [Compound 238, 1-(2-(3-(5-aminopyrimidin-2-yl)-5-chlorophenyl)-5,5-difluoropiperidin-1-yl)prop-2-en-1-one], the Emax in the assay on Nrf2 was 82%. Moreover, the pIC50 on KEAP1 C151 was 7.47.

Turning to `C=CC(=O)N1CCCCC1c1cc(Cl)cc(-c2ncc(N)cn2)c1` (single isomer, unassigned) [Compound 239, 1-(2-(3-(5-aminopyrimidin-2-yl)-5-chlorophenyl)piperidin-1-yl)prop-2-en-1-one], in the assay with Nrf2, the Emax came out at 83%. On KEAP1 C151, the pIC50 is 6.66.
